Laboratory results: PMC10945332, “Precision peptide theranostics: developing N- to C-terminus optimized theranostics targeting cholecystokinin-2 receptor” (Theranostics, 2024)
Where two headings read alike, the source gives them in different places. Where a SMILES comes first, the peptide text is derived from it. [ ]: non-standard residue; d: D form. The star is where a group is joined. DOTA = O=C(O)CN1CCN(CC(=O)O)CCN(CC(=O)*)CCN(CC(=O)O)CC1; NMe1Nal = CN[C@@H](Cc1cccc2ccccc12)C(=O)O; NMeNle = CCCC[C@H](NC)C(=O)O; Sar = CNCC(=O)O

Assays:
[1] = assay type: physicochemical
Method: Lipophilicity, expressed as the octanol-water partition coefficient, constitutes an important property in drug action, influencing both pharmacokinetic and pharmacodynamics processes. The distribution coefficient (LogD7.4) of [^68Ga]Ga-DOTA-peptides was determined by measuring radioactivity distribution in the aqueous phase (phosphate buffer pH7.4) and the organic phase (n-octanol). […]
To determine the distribution coefficient (logD 7.4), 68Ga radiolabeled peptides [68Ga]Ga-DOTA-GA4, [68Ga]Ga-DOTA-GA7, and [68Ga]Ga-DOTA-GA11–GA13 were diluted to approximately 20 pmol/mL in PBS (pH 7.4) and an equal volume of n-octanol was added. The mixture was vortexed vigorously for 10 cycles of 1 min at room temperature before being centrifuged for 6 min to separate the two phases. Equal volumes from each phase were aliquoted into individual counting tubes and analysed for 1 min using the Perkin Elmer 2480 Wizard2™ gamma counter (PerkinElmer, Massachusetts, USA). The distribution coefficient was calculated using the following equation LogD = […]. […]

[2] = assay type: in vitro ADME, mouse
Method: Metabolic stability is an important determinant of the efficacy of peptide radiopharmaceuticals and their progression as promising theranostic candidates. In vitro, metabolic degradation through hepatic and renal enzymes can be assessed by utilizing liver and kidney tissue homogenates. Radiolabeled peptides [^68Ga]Ga-DOTA-GA4, and D-Ala substituted variants [^68Ga]Ga-DOTA-GA7, [^68Ga]Ga-DOTA-GA11-GA13 were incubated in liver and kidney mouse homogenates, in human serum at 37°C, and in HEPES buffer (pH 7.4) as a negative control. Following a time course experiment, the metabolites were analyzed using HPLC to quantify the % breakdown of the respective parent peptide. […]
To assess the stability of 68Ga radiolabeled peptides against enzymatic degradation, duplicate samples (750-900 pmol/mL, 2-5MBq) were incubated at 37 ℃ with pooled human serum, 15% […]
mouse kidney homogenate, 30% mouse liver homogenate or 20 mM HEPES, pH 7.3 (control).
Human blood was collected, and serum prepared using SSTII advance vacutainer tubes according to the manufacturer’s instructions (Becton Dickinson, New Jersey, USA). Mouse kidney and liver homogenates were prepared by washing the tissues in ice-cold HEPES buffer, pH 7.3 and placing them in pre-chilled tubes containing HEPES buffer and 2.38 mm metal beads (Mo-Bio Laboratories, Hilden, Germany). Tissues were homogenised using the PowerLyzer24 homogeniser (Qiagen, Hilden, Germany) according to the manufacturer’s instructions. 68Ga radiolabeled peptides were then incubated with the various lysates at 37 ℃ and samples were collected at 15, 30, 60 and 90 min. Reactions were terminated by addition of an equal volume of acetonitrile and centrifugation for 2 min at 15,000 rpm. Supernatants were diluted in water before being analysed by HPLC using a Kinetex C18 XB column (5µm

[3] = mouse, in vivo
Method: (§1) In order to assess these promising ligands as potential theranostics, the library of [^68Ga]Ga-DOTA-peptides was evaluated using static small animal PET imaging and quantifying biodistribution studies. This study was performed to investigate tumor uptake as well as the accumulation of radioligands in other organs. Mice bearing A431-CCK2R tumors were imaged at 1- and 2 hours post tracer injection, and tracer biodistribution was evaluated at the 1 hour and 2.5 hour time points to quantify tumor uptake and retention. […]
(§2) Small Animal PET Imaging and Biodistribution Studies
(§3) Female NSG mice (age 11-14 weeks) were sourced from Animal Resources Centre, (Canning Vale, Western Australia) and were inoculated subcutaneously on the right flank with 1-3 x 106 […]
(§4) A431-CCK2R cells in PBS:Matrigel (1:1). […]
(§5) Mice were assigned to imaging and/or biodistribution groups (tumour volumes: 119-327 mm3).
(§6) The respective 68Ga labelled tracer (1.63–3.81 MBq, 170µL, 13.7–14.2 pmoles) containing vehicle solution (75µL, DMSO:Tween 80: water, 2:2:6 v/v/v) was then administered to mice intravenously via tail vein injection. Three mice were euthanized for biodistribution 1 hour post injection (n=3) and selected tissues were excised, weighed, and counted using a Capintec (Captus 4000e) gamma counter. Three mice were anaesthetised using 1.5% isoflurane and imaged at 1 hour (n=3) and 2 hours (n=3) with a G8 Small Animal PET/CT scanner (Perkin […]
(§7) Elmer/Sofie Biosciences). A 10 min static PET scan was acquired, followed immediately by a CT scan (Supplementary Data, pS51–S55). PET images were acquired using the G8 acquisition engine software and reconstructed using a 3D maximal likelihood and expectation maximization (ML-EM) algorithm. PET images were analysed using VivoQuant software, version 3.0 (inviCRO Imaging Services and Software) to quantify maximum standardised uptake value in regions of interest (SUVmax). Background regions for imaging experiments were calculated by quantitating mean standardised uptake value (SUVmean) of the abdomen and gut region. The region of interest was selected due to low uptake in abdomen/gut during imaging. After imaging the 2-hour time point, mice organs were harvested for biodistribution […]
(§8) For blocking CCK2R binding a solution of N-[(3R)-2,3-Dihydro-1-[2-(2-methylphenyl)-2-oxoethyl]-2-oxo-5-phenyl-1H-1,4-benzodiazepin-3-yl]-N′-(3-methylphenyl)-urea (YM022; Sigma Aldrich) was used. YM022 (75µL of a 1 mg/ml solution constituting DMSO:Tween 80: water, 2:2:6 v/v/v) was added to the respective 68Ga labelled tracer (1.41–3.61 MBq, 100 µL, 13.7–14.2 pmoles) and this mixture ([…]) was administered in three mice intravenously via tail vein injection and organs harvested at 1 hour post injection for biodistribution analysis, as above.
(§9) All animal experiments were performed with the approval of the Peter MacCallum Cancer Centre Animal Experimentation Ethics Committee and in accordance with the Australian code for the care and use of animals for scientific purposes, 8th Edition, 2013 (AEEC Approval

in vivo = conditions: female, NSG, mouse, iv, total radioactivity; for SUV at 2 h: SUVmax
Method: as §1, §2, §3, §4, §5, §6, §7, §8, §9

A431-CCK2R tumors = test: in vivo; conditions: female, NSG, mouse, iv, 1 h
Method: as §1, §2, §3, §4, §5, §6, §7, §8, §9

AR42J xenografts = conditions: mouse, in vivo, 1 h; cited from earlier work
[4] = 3 mg/kg, Uptake in A431-CCK2R Tumors, 1 hr Blocked
[5] = Uptake in A431-CCK2R Tumors, 1 hr

| logD [1] | metabolites in kidney homogenates [2] | metabolites in liver homogenates [2] | tissue uptake at 1 h [3, 4] [%ID/g] | tissue uptake at 1 h [3, 5] [%ID/g] | tissue uptake at 2.5 h ([3]; Uptake in A431-CCK2R Tumors) [%ID/g] | tissue uptake at 1 h ([3]; Uptake in Organs: Blood) [%ID/g] | tissue uptake at 1 h ([3]; Uptake in Organs: Heart) [%ID/g] | tissue uptake at 1 h ([3]; Uptake in Organs: Kidneys) [%ID/g] | tissue uptake at 1 h ([3]; Uptake in Organs: Liver) [%ID/g] | tissue uptake at 1 h ([3]; Uptake in Organs: Lungs) [%ID/g] | tissue uptake at 1 h ([3]; Uptake in Organs: Muscle) [%ID/g] | tissue uptake at 1 h ([3]; Uptake in Organs: Spleen) [%ID/g] | tissue uptake at 1 h ([3]; Uptake in Organs: Stomach) [%ID/g] | tissue to tissue ratio at 1 h (in vivo) | SUV at 2 h (in vivo) [SUV] | SUVmax (A431-CCK2R tumors) | Structure (SMILES) | Tumor uptake (AR42J xenografts) [% ID/g] |
| --- | --- | --- | --- | --- | --- | --- | --- | --- | --- | --- | --- | --- | --- | --- | --- | --- | --- | --- |
| -2.59 ± 0.02 | no observable metabolites detected | no observable metabolites detected | 2.53 ± 0.17 | 9.68 ± 1.02 | 11.4 ± 0.17 | 0.83 ± 0.07 | 0.4 ± 0.03 | 12.3 ± 0.63 | 0.44 ± 0.03 | 0.85 ± 0.11 | 0.16 ± 0.03 | 0.43 ± 0.13 | 1.81 ± 0.12 | 19.3 ± 1.49 | 0.32 | 1.86 | CCCC[C@@H](C(=O)N[C@@H](CC(=O)O)C(=O)N(C)[C@@H](Cc1cccc2ccccc12)C(N)=O)N(C)C(=O)[C@H](Cc1c[nH]c2ccccc12)NC(=O)CN(C)C(=O)[C@H](Cc1ccc(O)cc1)NC(=O)[C@H](C)NC(=O)[C@@H](CCC(=O)O)NC(=O)[C@@H](CCC(=O)O)NC(=O)[C@@H](CCC(=O)O)NC(=O)[C@@H](C)NC(=O)[C@@H](CCC(=O)O)NC(=O)[C@@H](CCC(=O)O)NC(=O)CN1CCN(CC(=O)O)CCN(CC(=O)O)CCN(CC(=O)O)CC1 [[^68Ga]Ga-DOTA-GA13, metal not drawn] ({DOTA}-[dE][dE][dA][dE][dE][dE]AY[Sar]W[NMeNle]D[NMe1Nal]-NH2) | – |
| -2.97 ± 0.13 | no observable metabolites detected | no observable metabolites detected | 2.05 ± 0.14 | 8.77 ± 1.21 | 7.54 ± 0.5 | 0.92 ± 0.05 | 0.45 ± 0.03 | 20.3 ± 0.89 | 0.51 ± 0.01 | 0.92 ± 0.04 | 0.14 ± 0.01 | 0.62 ± 0.14 | 2.37 ± 0.12 | 11.4 ± 0.9 | 0.38 | – | CCCC[C@@H](C(=O)N[C@@H](CC(=O)O)C(=O)N(C)[C@@H](Cc1cccc2ccccc12)C(N)=O)N(C)C(=O)[C@H](Cc1c[nH]c2ccccc12)NC(=O)CN(C)C(=O)[C@H](Cc1ccc(O)cc1)NC(=O)[C@H](C)NC(=O)[C@@H](CCC(=O)O)NC(=O)[C@@H](CCC(=O)O)NC(=O)[C@@H](CCC(=O)O)NC(=O)[C@@H](CCC(=O)O)NC(=O)[C@@H](CCC(=O)O)NC(=O)[C@@H](CCC(=O)O)NC(=O)CN1CCN(CC(=O)O)CCN(CC(=O)O)CCN(CC(=O)O)CC1 [[^68Ga]Ga-DOTA-GA4, metal not drawn] ({DOTA}-[dE][dE][dE][dE][dE][dE]AY[Sar]W[NMeNle]D[NMe1Nal]-NH2) | 31.1 ± 5.3 |
